Results taken from patent EP3800188A1, “SUBSTITUTED PYRAZOLOPYRIMIDINES AS IRAK4 INHIBITORS” (Bayer AG, priority 2019, dated 2021).
Where two headings read alike, the source gives them in different places.

Tests used:
human IRAK4 = molecular target: T1, human IRAK4 (Homo sapiens, UniProt Q9NWZ3); assay: Human IRAK4 kinase activity inhibition assay (IRAK4 TR-FRET assay); assay type: biochemical; settings: 1 mM ATP, GST-human IRAK4, average or median values
T1 construct: GST (N); made in house; host or cells: baculovirus-infected Hi5 (BTI-TN-5B1-4) insect cells
T1 sequence (Q9NWZ3 1-460): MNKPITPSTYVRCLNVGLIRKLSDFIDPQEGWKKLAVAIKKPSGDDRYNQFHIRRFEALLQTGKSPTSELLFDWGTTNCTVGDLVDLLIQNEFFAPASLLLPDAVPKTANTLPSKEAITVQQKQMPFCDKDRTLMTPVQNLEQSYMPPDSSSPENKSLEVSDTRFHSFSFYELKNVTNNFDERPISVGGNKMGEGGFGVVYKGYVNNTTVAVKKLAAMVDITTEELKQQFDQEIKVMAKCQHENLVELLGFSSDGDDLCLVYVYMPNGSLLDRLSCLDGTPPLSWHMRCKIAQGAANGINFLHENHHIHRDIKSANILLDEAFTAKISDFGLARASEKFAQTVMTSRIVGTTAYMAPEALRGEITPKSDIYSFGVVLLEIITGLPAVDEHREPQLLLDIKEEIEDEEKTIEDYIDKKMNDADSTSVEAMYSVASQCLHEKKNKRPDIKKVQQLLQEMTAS
Procedure, shortened: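 Signal was the 665/620 nm emission ratio from a europium anti-mouse-IgG, anti-phosphoserine antibody and streptavidin-XL665 complex formed over 1 h at 22°C. It was scaled between no-enzyme (100%) and no-compound (0%) wells. Beforehand, compounds (20 µM down to 0.073 nM, 11 points) sat 15 min with roughly 0.2 nM insect-cell-expressed GST-human IRAK4 before phosphorylation of a biotinylated peptide substrate.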

[1] = Metabolic stability in human liver microsomes; settings: 1 µM compound; for CLblood, human microsomes: hepatic in vivo blood clearance calculated with well stirred liver model, '(stable)' given beside < 0.01; for Fmax, human microsomes: maximal oral bioavailability calculated with well stirred liver model, 0.5 mg/mL protein, '(stable)' given beside 100
canine Irak4 = molecular target: T2, canine Irak4 (Canis lupus familiaris, UniProt A0A8I3S726); assay: Canine Irak4 kinase assay (TR-FRET); assay type: biochemical; settings: 1 mM ATP, His6-tagged canine Irak4, average or median values
T2 sequence (A0A8I3S726 2-459): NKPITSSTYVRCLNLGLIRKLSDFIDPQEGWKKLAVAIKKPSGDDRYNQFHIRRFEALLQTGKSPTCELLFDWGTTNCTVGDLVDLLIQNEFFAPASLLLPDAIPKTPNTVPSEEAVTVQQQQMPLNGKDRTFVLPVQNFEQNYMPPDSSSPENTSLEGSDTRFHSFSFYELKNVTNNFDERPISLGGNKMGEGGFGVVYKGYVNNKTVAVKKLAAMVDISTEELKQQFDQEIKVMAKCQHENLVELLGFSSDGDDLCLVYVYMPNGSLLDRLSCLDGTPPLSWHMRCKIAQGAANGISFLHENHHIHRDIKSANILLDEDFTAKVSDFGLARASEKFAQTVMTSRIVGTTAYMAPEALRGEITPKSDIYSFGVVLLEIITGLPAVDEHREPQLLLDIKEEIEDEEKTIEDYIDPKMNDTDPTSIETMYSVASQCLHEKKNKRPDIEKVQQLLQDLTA

human PBMCs = assay: In vitro LPS-induced cytokine (TNF-α) production in human PBMCs; assay type: cell-based; settings: PBMC, 0.1 µg/mL LPS, 24 hours, 30 min preincubation, read-out: activity (LPS-induced TNF-α secretion in human PBMCs)
Experimental: The effect of the compounds of the general formula (I) on induced cytokine production in human PBMCs was examined.
Cytokine production was induced here by LPS, a TLR4 ligand, which leads to activation of the IRAK4-mediated signal path.
The human PBMCs were obtained from anti-coagulated human whole blood. To this end, 15 mL of Ficoll-Paque (Biochrom, Cat. No. L6115) were initially charged in Leucosep tubes and 20 mL of human blood were added. After centrifugation of the blood at 800 g for 15 min at room temperature, the plasma including the platelets was removed and discarded. The PBMCs were transferred into centrifugation tubes and made up with PBS (phosphate-buffered saline) (Gibco, Cat. No. 14190). The cell suspension was centrifuged at room temperature at 250 g for 10 min and the supernatant was discarded. The PBMCs were resuspended in complete medium (RPMI 1640, without L-glutamine (PAA, Cat. No. E15-039), 10% FCS; 50 U/mL penicillin, 50 µg/mL streptomycin (PAA, Cat. No. P11-010) and 1% L-glutamine (Sigma, Cat. No. G7513)). The assay was also carried out in complete medium. The PBMCs were sown in 96-well plates at a cell density of 2.5x10^5 cells/well. The compounds according to the invention were subjected to serial dilution in a constant volume of 100% DMSO and used in the assay at 8 different concentrations in the range from 10 µM to 3 nM such that the final DMSO concentration was 0.4% DMSO. Prior to the actual stimulation, the cells were then preincubated therewith for 30 min. To induce cytokine secretion, the cells were stimulated with 0.1 µg/mL LPS (Sigma, Escherichia coli 0128:B12, Cat. No. L2887) for 24 hours. Cell viability was determined using the CellTiter-Glo luminescent assay (Promega, Cat. No. G7571 (G755/G756A)) in accordance with the manufacturer's instructions. The amount of secreted TNF-α in the cell culture supernatant was determined using the Human ProInflammatory 9-Plex Tissue Culture Kit (MSD, Cat. No. K15007B) in accordance with the instructions of the manufacturer. By way of example, Example Compounds II-2, I-40, I-56, I-61 have activity ≤ 500 nM.

[2] = 1 µM, pH 7.4
[3] = Metabolic stability in dog liver microsomes; assay type: in vitro ADME; settings: 1 µM compound; for CLblood, dog microsomes: hepatic in vivo blood clearance calculated with well stirred liver model, '(stable)' given beside < 0.01; for Fmax, dog microsomes: maximal oral bioavailability calculated with well stirred liver model, 0.5 mg/mL protein, '(stable)' given beside 100
Experimental: From the half-life the intrinsic clearances were calculated.

IC50 (human IRAK4) | CLblood, human microsomes [1] | Fmax, human microsomes [1] | IC50 (canine Irak4) | CLblood, dog microsomes [3] | Fmax, dog microsomes [3] | SMILES | IC50 (human PBMCs) | CLblood, human microsomes [2] | Fmax, human microsomes [2]
8.82 nM | 0.17 L/h/kg | 87% | 5.41 nM |  |  | O=S1(=O)CCC(Nc2nc(N3CC(N4CCOCC4)C3)c3cnn(-c4cccc(C(F)(F)F)c4)c3n2)CC1 [Example I-23, N-(1,1-dioxidotetrahydro-2H-thiopyran-4-yl)-4-[3-(morpholin-4-yl)azetidin-1-yl]-1-[3-(trifluoromethyl)phenyl]-1H-pyrazolo[3,4-d]pyrimidin-6-amine] |  |  | 
3.68 nM | 0.07 L/h/kg | 95% |  |  |  | C[C@H]1C[C@H](Nc2nc(N3CCC(C(C)(C)O)CC3)c3cnn(-c4cccc(C(F)(F)F)c4)c3n2)CN1 [Example I-40, 2-[1-(6-{[(3S,5S)-5-methylpyrrolidin-3-yl]amino}-1-[3-(trifluoromethyl)phenyl]-1H-pyrazolo[3,4-d]pyrimidin-4-yl)piperidin-4-yl]propan-2-ol] | ≤ 500 nM |  | 
3.46 nM | 0.06 L/h/kg | 95% |  | 0.06 L/h/kg | 97% | CS(=O)(=O)[C@H]1C[C@H](Nc2nc(N3CC(N4CCOCC4)C3)c3cnn(-c4cccc(C(F)(F)F)c4)c3n2)C1 [Example I-56, N-[trans-3-(methylsulfonyl)cyclobutyl]-4-[3-(morpholin-4-yl)azetidin-1-yl]-1-[3-(trifluoromethyl)phenyl]-1H-pyrazolo[3,4-d]pyrimidin-6-amine] | ≤ 500 nM |  | 
1.82 nM | 0.04 L/h/kg | 97% | 1.98 nM |  |  | CC(C)(O)C1CCN(c2nc(N[C@H]3C[C@](C)(N)C3)nc3c2cnn3-c2cccc(C(F)(F)F)c2)CC1 [Example I-57, 2-(1-{6-[(trans-3-amino-3-methylcyclobutyl)amino]-1-[3-(trifluoromethyl)phenyl]-1H-pyrazolo[3,4-d]pyrimidin-4-yl}piperidin-4-yl)propan-2-ol] |  |  | 
3.28 nM | 0.31 L/h/kg | 77% |  |  |  | CC1(O)CCN(C2CN(c3nc(N[C@H]4C[C@H](S(C)(=O)=O)C4)nc4c3cnn4-c3cccc(C(F)(F)F)c3)C2)CC1 [Example I-61, 4-methyl-1-[1-(6-{[trans-3-(methylsulfonyl)cyclobutyl]amino}-1-[3-(trifluoromethyl)-phenyl]-1H-pyrazolo[3,4-d]pyrimidin-4-yl)azetidin-3-yl]piperidin-4-ol] | ≤ 500 nM |  | 
6.68 nM | 0.15 L/h/kg | 88% |  | 0.07 L/h/kg | 97% | O=S1(=O)CCC(Nc2nc(N3CC(N4CCOCC4)C3)c3cnn(-c4cccc(C(F)F)c4)c3n2)CC1 [II-2, 1-[3-(difluoromethyl)phenyl]-N-(1,1-dioxidotetrahydro-2H-thiopyran-4-yl)-4-[3-(morpholin-4-yl)azetidin-1-yl]-1H-pyrazolo[3,4-d]pyrimidin-6-amine] | ≤ 500 nM |  | 
8.06 nM | 0.18 L/h/kg | 86% | 6.52 nM |  |  | CC(C)(O)C1CCN(c2nc(N[C@@H]3CNC(=O)C3)nc3c2cnn3-c2cccc(OC(F)F)c2)CC1 [IV-1, (4S)-4-({1-[3-(difluoromethoxy)phenyl]-4-[4-(2-hydroxypropan-2-yl)piperidin-1-yl]-1H-pyrazolo[3,4-d]pyrimidin-6-yl}amino)pyrrolidin-2-one] |  |  | 

SMILES | IC50 (human IRAK4) | CLblood, human microsomes [1] | Fmax, human microsomes [1] | IC50 (canine Irak4) | CLblood, dog microsomes [3] | Fmax, dog microsomes [3] | IC50 (human PBMCs) | CLblood, human microsomes [2] | Fmax, human microsomes [2]
O=C1C[C@H](Nc2nc(N3CC(CC(=O)N4CC5CC(C4)O5)C3)c3cnn(-c4cccc(C(F)(F)F)c4)c3n2)CN1 [Example I-52, (4S)-4-[(4-{3-[2-(6-oxa-3-azabicyclo[3.1.1]heptan-3-yl)-2-oxoethyl]azetidin-1-yl}-1-[3-(trifluoromethyl)phenyl]-1H-pyrazolo[3,4-d]pyrimidin-6-yl)amino]pyrrolidin-2-one] | 7.99 nM |  |  |  |  |  |  | < 0.01 (stable) L/h/kg | 100 (stable) %
